Like-named read-outs stand apart in the source and are kept apart here.
Target: T1, fascin-1 (Homo sapiens, UniProt Q16658)
T1 construct: gene FSCN1; recombinant, E. coli BL21(DE3), pGEX-5X-2 GST fusion, GST cut off with thrombin; monomer
Test: isothermal titration calorimetry
Type: binding

| Structure (SMILES) | Kd (50 mM Hepes pH 7.5, 150 mM NaCl, 25 °C, proposed site 2) | Kd (read-out: Kd) [µM] |
| --- | --- | --- |
| O=C(Nc1nn(Cc2ccc(C(F)(F)F)cc2)c2ccccc12)c1ccco1 [G2] | Kd values of G2 to WT fascin-1 and seven fascin-1 mutant proteins |  |
| Cc1ccc2nc(-c3ccc(NCCOCCOCCOCCOCCOCCO)cc3)sc2c1 [BTA-EG6] |  | ~5 |

Source: article PMC12926044, “Nootropic benzothiazoles promote dendritic spine formation by targeting fascin-1” (The Journal of Biological Chemistry, 2025)
